Assay results: patent publication US10570122B2, “Compounds with anti-tumoral activity” (AB Science, priority 2015, dated 2020)

How the values were obtained:
HL60 = test: CellTiter-Blue cell-based survival/proliferation assay, HL60; conditions: Homo sapiens, HL-60, Leukemia cell line HL60, 48 h, read-out: Anti-tumoral activity (measured IC50) HL60
Outline: (§1)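 Tenfold compound dilutions (0–10 μM) were added to 1·10^4 cells/well. Plates incubated 48 h at 37 °C. CellTiter-Blue reduction (4 h, 37 °C) was read as fluorescence at 590 nm, background-corrected with a cell-free blank.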

HUT78 = test: CellTiter-Blue cell-based survival/proliferation assay, HUT78; conditions: Homo sapiens, Lymphoma cell line HUT78, 48 h, read-out: Anti-tumoral activity (measured IC50) HUT78
Outline: as §1

KARPAS299 = test: CellTiter-Blue cell-based survival/proliferation assay, KARPAS299; conditions: Homo sapiens, KARPAS-299, Lymphoma cell line KARPAS299, 48 h, read-out: Anti-tumoral activity (measured IC50) KARPAS299
Outline: as §1

REC1 = test: CellTiter-Blue cell-based survival/proliferation assay, REC1; conditions: Homo sapiens, Lymphoma cell line REC1, 48 h, read-out: Anti-tumoral activity (measured IC50) REC1
Outline: as §1

OPM2 = test: CellTiter-Blue cell-based survival/proliferation assay, OPM2; conditions: Homo sapiens, OPM-2, Myeloma cell line OPM2, 48 h, read-out: Anti-tumoral activity (measured IC50) OPM2
Outline: as §1

A375 = test: CellTiter-Blue cell-based survival/proliferation assay, A375; conditions: Homo sapiens, A-375; A375 melanoma cell line, 48 h
Method: (§2) Cell-Based Proliferation Screening of Compounds
(§3) CellTiter-Blue cell-based survival/proliferation assay (Promega G8080) was performed on tumor cell lines. A total of 1·10^4 cells/well/50 μl were seeded in a 96-wells plate. Treatment was initiated by addition of a 2× drug solution of 1/10 serial dilutions ranging from 0 to 10 μM. Cells were grown for 48 h at 37° C. and then incubated with 10 μl/well of Promega CellTiter-Bleue reagent for 4 h at 37° C. The amount of resorufin dye formed was quantified by its fluorescence emission at 590 nm using a scanning multiwell spectrophotometer (OPTIMA, BMG labtech, France). A blank well without cells was used as a background control for the spectrophotometer.

A4513 = test: CellTiter-Blue cell-based survival/proliferation assay, A4513; conditions: Homo sapiens; A4513 Ewing cell line, 48 h
Method: as §2, §3

A498 = test: CellTiter-Blue cell-based survival/proliferation assay, A498; conditions: Homo sapiens; A498 kidney tumor cell line, 48 h
Outline: as §1

A549 = test: CellTiter-Blue cell-based survival/proliferation assay, A549; conditions: Homo sapiens; A549 lung tumor cell line, 48 h
Outline: as §1

ACHN = test: CellTiter-Blue cell-based survival/proliferation assay, ACHN; conditions: Homo sapiens; ACHN kidney tumor cell line, 48 h
Outline: as §1

AGS = test: CellTiter-Blue cell-based survival/proliferation assay, AGS; conditions: Homo sapiens; AGS stomach tumor cell line, 48 h
Outline: as §1

BT20 = test: CellTiter-Blue cell-based survival/proliferation assay, BT20; conditions: Homo sapiens, BT-20; BT20 breast tumor cell line, 48 h
Outline: as §1

BXPC3 = test: CellTiter-Blue cell-based survival/proliferation assay, BXPC3; conditions: Homo sapiens, BXPC-3; BXPC3 pancreas tumor cell line, 48 h
Outline: as §1

CALU6 = test: CellTiter-Blue cell-based survival/proliferation assay, CALU6; conditions: Homo sapiens, Calu-6; CALU6 lung tumor cell line, 48 h
Outline: as §1

CLS354 = test: CellTiter-Blue cell-based survival/proliferation assay, CLS354; conditions: Homo sapiens, CLS-354; CLS354_4 head & neck tumor cell line, 48 h
Outline: as §1

DLD1 = test: CellTiter-Blue cell-based survival/proliferation assay, DLD1; conditions: Homo sapiens, DLD-1; DLD_1 colorectal tumor cell line, 48 h
Outline: as §1

DU145 = test: CellTiter-Blue cell-based survival/proliferation assay, DU145; conditions: Homo sapiens, DU-145; DU145 prostate tumor cell line, 48 h
Outline: as §1

H1299 = test: CellTiter-Blue cell-based survival/proliferation assay, H1299; conditions: Homo sapiens, NCI-H1299; H1299 lung tumor cell line, 48 h
Outline: as §1

HCT116 = test: CellTiter-Blue cell-based survival/proliferation assay, HCT116; conditions: Homo sapiens, HCT-116; HCT116 colorectal tumor cell line, 48 h
Outline: as §1

HEP2 = test: CellTiter-Blue cell-based survival/proliferation assay, HEP2; conditions: Homo sapiens, HEp-2; HEP2 head & neck tumor cell line, 48 h
Outline: as §1

HEPG2 = test: CellTiter-Blue cell-based survival/proliferation assay, HEPG2; conditions: Homo sapiens; HEPG2 liver tumor cell line, 48 h
Outline: as §1

HGC27 = test: CellTiter-Blue cell-based survival/proliferation assay, HGC27; conditions: Homo sapiens, HGC-27; HGC27 stomach tumor cell line, 48 h
Outline: as §1

MDAMB231 = test: CellTiter-Blue cell-based survival/proliferation assay, MDAMB231; conditions: Homo sapiens, MDA-MB-231; MDAMB231 breast tumor cell line, 48 h
Outline: as §1

MELWO = test: CellTiter-Blue cell-based survival/proliferation assay, MELWO; conditions: Homo sapiens; MEL_WO melanoma cell line, 48 h
Method: as §2, §3

MESSA = test: CellTiter-Blue cell-based survival/proliferation assay, MESSA; conditions: Homo sapiens, MES-SA; MESSA ovary tumor cell line, 48 h
Outline: as §1

PANC1 = test: CellTiter-Blue cell-based survival/proliferation assay, PANC1; conditions: Homo sapiens, PANC-1; PANC_1 pancreas tumor cell line, 48 h
Outline: as §1

PC3 = test: CellTiter-Blue cell-based survival/proliferation assay, PC3; conditions: Homo sapiens, PC-3; PC3 prostate tumor cell line, 48 h
Outline: as §1

PLCPRF5 = test: CellTiter-Blue cell-based survival/proliferation assay, PLCPRF5; conditions: Homo sapiens, PLC-PRF-5; PLC_PRF5 liver tumor cell line, 48 h
Outline: as §1

SW579 = test: CellTiter-Blue cell-based survival/proliferation assay, SW579; conditions: Homo sapiens; SW579 head & neck tumor cell line, 48 h
Outline: as §1

TOV112D = test: CellTiter-Blue cell-based survival/proliferation assay, TOV112D; conditions: Homo sapiens; TOV112D ovary tumor cell line, 48 h
Outline: as §1

U118 = test: CellTiter-Blue cell-based survival/proliferation assay, U118; conditions: Homo sapiens; U118 glioblastoma cell line, 48 h
Method: as §2, §3

U2OS = test: CellTiter-Blue cell-based survival/proliferation assay, U2OS; conditions: Homo sapiens; U2OS osteosarcoma cell line, 48 h
Method: as §2, §3

U87MG = test: CellTiter-Blue cell-based survival/proliferation assay, U87MG; conditions: Homo sapiens, U-87 MG; U87_MG glioblastoma cell line, 48 h
Method: as §2, §3

SMILES | IC50 (HL60) | IC50 (HUT78) | IC50 (KARPAS299) | IC50 (REC1) | IC50 (OPM2) | IC50 (A375) | IC50 (A4513) | IC50 (A498) | IC50 (A549) | IC50 (ACHN) | IC50 (AGS) | IC50 (BT20) | IC50 (BXPC3) | IC50 (CALU6) | IC50 (CLS354) | IC50 (DLD1) | IC50 (DU145) | IC50 (H1299) | IC50 (HCT116) | IC50 (HEP2) | further results
CCOCc1ccc(C)c(Nc2ncc(-c3ccc(-n4cccn4)nc3)o2)c1 [Example 007, (5-Ethoxymethyl-2-methyl-phenyl)-[5-(6-pyrazol-1-yl-pyridin-3-yl)-oxazol-2-yl]-amine] | 100 to 500 nM | ≤ 100 nM | ≤ 100 nM | ≤ 100 nM | 100 to 500 nM | ≤ 100 nM | 100 to 500 nM | > 1000 nM | > 1000 nM | 100 to 500 nM | ≤ 100 nM | > 1000 nM | > 1000 nM | > 1000 nM | ≤ 100 nM | 500 to 1000 nM | > 1000 nM | > 1000 nM | > 1000 nM | 100 to 500 nM | IC50 (HEPG2): > 1000 nM; IC50 (HGC27): 100 to 500 nM; IC50 (MDAMB231): > 1000 nM; IC50 (MELWO): > 1000 nM; IC50 (MESSA): > 1000 nM; IC50 (PANC1): > 1000 nM; IC50 (PC3): 100 to 500 nM; IC50 (PLCPRF5): > 1000 nM; IC50 (SW579): > 1000 nM; IC50 (TOV112D): ≤ 100 nM; IC50 (U118): > 1000 nM; IC50 (U2OS): > 1000 nM; IC50 (U87MG): > 1000 nM
COc1ccc(C)c(Nc2ncc(-c3ccc(N4CCNC4=O)cc3)s2)c1 [Example 013, 1-{4-[2-(5-Methoxy-2-methyl-phenylamino)-thiazol-5-yl]-phenyl}-imidazolidin-2-one] | 100 to 500 nM | 500 to 1000 nM | 500 to 1000 nM | 500 to 1000 nM | 100 to 500 nM | > 1000 nM | 100 to 500 nM | > 1000 nM | > 1000 nM | > 1000 nM | > 1000 nM | > 1000 nM | > 1000 nM | > 1000 nM | > 1000 nM | > 1000 nM | > 1000 nM | > 1000 nM | > 1000 nM | > 1000 nM | IC50 (HEPG2): > 1000 nM; IC50 (HGC27): > 1000 nM; IC50 (MDAMB231): > 1000 nM; IC50 (MELWO): > 1000 nM; IC50 (MESSA): > 1000 nM; IC50 (PANC1): > 1000 nM; IC50 (PC3): 500 to 1000 nM; IC50 (PLCPRF5): > 1000 nM; IC50 (SW579): > 1000 nM; IC50 (TOV112D): > 1000 nM; IC50 (U118): > 1000 nM; IC50 (U2OS): > 1000 nM; IC50 (U87MG): > 1000 nM
CCOCc1ccc(C)c(Nc2ncc(-c3ccc(N4CCNC4=O)cc3)s2)c1 [Example 014, 1-{4-[2-(5-Ethoxymethyl-(2-methyl-phenylamino))-thiazol-5-yl]-phenyl}-imidazolidin-2-one] | > 1000 nM | > 1000 nM | 100 to 500 nM | > 1000 nM | > 1000 nM | > 1000 nM | 500 to 1000 nM | > 1000 nM | > 1000 nM | > 1000 nM | > 1000 nM | > 1000 nM | > 1000 nM | > 1000 nM | > 1000 nM | > 1000 nM | > 1000 nM | > 1000 nM | > 1000 nM | > 1000 nM | IC50 (HEPG2): > 1000 nM; IC50 (HGC27): > 1000 nM; IC50 (MDAMB231): > 1000 nM; IC50 (MELWO): > 1000 nM; IC50 (MESSA): > 1000 nM; IC50 (PANC1): > 1000 nM; IC50 (PC3): > 1000 nM; IC50 (PLCPRF5): > 1000 nM; IC50 (SW579): > 1000 nM; IC50 (TOV112D): > 1000 nM; IC50 (U118): > 1000 nM; IC50 (U2OS): > 1000 nM; IC50 (U87MG): > 1000 nM
CCOCc1ccc(C)c(Nc2ncc(-c3ccc(-n4cccn4)c(OC)c3)o2)c1 [Example 002, (5-Ethoxymethyl-2-methyl-phenyl)-[5-(3-methoxy-4-pyrazol-1-yl-phenyl)-oxazol-2-yl]-amine] | > 1000 nM | > 1000 nM | > 1000 nM | > 1000 nM | > 1000 nM | > 1000 nM | > 1000 nM | > 1000 nM | > 1000 nM | > 1000 nM | > 1000 nM | > 1000 nM | > 1000 nM | > 1000 nM | > 1000 nM | > 1000 nM | > 1000 nM | > 1000 nM | > 1000 nM | > 1000 nM | IC50 (HEPG2): > 1000 nM; IC50 (HGC27): > 1000 nM; IC50 (MDAMB231): > 1000 nM; IC50 (MELWO): > 1000 nM; IC50 (MESSA): > 1000 nM; IC50 (PANC1): > 1000 nM; IC50 (PC3): > 1000 nM; IC50 (PLCPRF5): > 1000 nM; IC50 (SW579): > 1000 nM; IC50 (TOV112D): > 1000 nM; IC50 (U118): > 1000 nM; IC50 (U2OS): > 1000 nM; IC50 (U87MG): > 1000 nM
